Earlier results as cited in patent US20180015057A1, “ERR ALPHA AND ERR GAMMA ARE ESSENTIAL COORDINATORS OF CARDIAC METABOLISM AND FUNCTION” (Salk Institute for Biological Studies, priority 2015, published 2018).

Tests used:
[1] = biological target: T1, ERRβ (Homo sapiens, UniProt O95718); conditions: for activation of ERRβ: for example in the presence of PGC-1a
T1 sequence (O95718 1-433): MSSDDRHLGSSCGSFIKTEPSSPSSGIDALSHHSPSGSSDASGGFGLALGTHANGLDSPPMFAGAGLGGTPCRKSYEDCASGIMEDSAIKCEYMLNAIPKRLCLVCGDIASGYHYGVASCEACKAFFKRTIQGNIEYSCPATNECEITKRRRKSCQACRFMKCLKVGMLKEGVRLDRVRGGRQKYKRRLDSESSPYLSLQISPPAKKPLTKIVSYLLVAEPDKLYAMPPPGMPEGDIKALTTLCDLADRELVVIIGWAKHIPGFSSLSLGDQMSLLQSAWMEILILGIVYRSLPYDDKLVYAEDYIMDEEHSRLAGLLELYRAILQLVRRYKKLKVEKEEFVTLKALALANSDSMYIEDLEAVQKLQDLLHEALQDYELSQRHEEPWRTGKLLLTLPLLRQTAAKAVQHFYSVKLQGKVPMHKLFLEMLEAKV

[2] = biological target: T2, ERRγ (Homo sapiens, UniProt P62508); conditions: for activation of ERRγ: for example in the presence of PGC-1a
T2 sequence (P62508 1-458): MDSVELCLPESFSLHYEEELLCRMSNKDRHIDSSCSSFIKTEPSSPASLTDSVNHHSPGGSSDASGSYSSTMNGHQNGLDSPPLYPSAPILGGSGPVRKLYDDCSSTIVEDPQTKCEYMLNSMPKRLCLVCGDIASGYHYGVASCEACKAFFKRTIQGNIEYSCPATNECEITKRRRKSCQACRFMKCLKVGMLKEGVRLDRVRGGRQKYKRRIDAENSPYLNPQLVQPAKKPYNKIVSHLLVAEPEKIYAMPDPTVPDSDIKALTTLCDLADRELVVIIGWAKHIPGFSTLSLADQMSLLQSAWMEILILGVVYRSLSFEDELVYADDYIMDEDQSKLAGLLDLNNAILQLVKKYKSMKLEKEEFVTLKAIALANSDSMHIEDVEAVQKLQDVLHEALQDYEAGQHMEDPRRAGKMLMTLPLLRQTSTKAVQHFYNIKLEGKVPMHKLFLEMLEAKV

[3] = biological target: T3, ERRα (Homo sapiens, UniProt P11474); conditions: for example in the presence of PGC-1a
T3 sequence (P11474 1-423): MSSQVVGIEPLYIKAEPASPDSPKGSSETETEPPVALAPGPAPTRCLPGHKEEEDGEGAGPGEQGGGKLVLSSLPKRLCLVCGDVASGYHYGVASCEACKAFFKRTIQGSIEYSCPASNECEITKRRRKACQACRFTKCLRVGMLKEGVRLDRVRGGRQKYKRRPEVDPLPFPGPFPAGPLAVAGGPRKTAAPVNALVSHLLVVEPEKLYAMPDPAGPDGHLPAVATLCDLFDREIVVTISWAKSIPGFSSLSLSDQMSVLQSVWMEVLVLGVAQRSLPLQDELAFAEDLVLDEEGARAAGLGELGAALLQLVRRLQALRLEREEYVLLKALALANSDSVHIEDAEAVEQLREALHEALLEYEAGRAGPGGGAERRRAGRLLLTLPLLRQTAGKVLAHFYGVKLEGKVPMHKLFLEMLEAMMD

Row | Structure (SMILES) | agonism of ERRβ [1] | agonism of ERRγ [2] | activation of ERRβ [1] | activation of ERRγ [2] | activation of ERRα [3] | selectivity for ERRγ versus ERRα and β ([2]; screening assay for agonists derived from GSK4716 (Kim et al. 2009))
1 | CCN(CC)c1ccc(C=NNC(=O)c2ccc(O)cc2)cc1 (stereo in doubt) [GSK9089, N-[(E)-[4-(diethylamino)phenyl]methylideneamino]-4-hydroxybenzamide] | agonists | agonists |  |  |  | 
2 | Cc1cccc(C=NNC(=O)c2ccc(O)cc2)c1 [DY159] |  |  | activate | activate | activate | 
3 | O=C(NN=Cc1ccccc1)c1ccc(O)cc1 [DY162] |  |  | activate | activate | activate | 
4 | Cc1ccc(/C=N/NC(=O)c2ccc(O)cc2)cc1 [DY163] |  |  | activate | activate | activate | 
5 | CCc1ccc(C=NNC(=O)c2ccc(O)cc2)s1 [DY164] |  |  | activate | activate | activate | 
6 | Nc1ccc(C(=O)N/N=C/c2ccc(/N=N/c3ccccc3)cc2)cn1 [E6] |  |  |  |  |  | selective for ERRγ but not ERRα and β
7 | CC(C)c1ccc(/C=N/NC(=O)c2ccc(O)cc2)cc1 [GSK4716] | agonists |  |  |  |  | 
